The values that follow come from ChEMBL document CHEMBL3098026, “Synthesis and SAR of novel isoxazoles as potent c-jun N-terminal kinase (JNK) inhibitors” (Bioorg Med Chem Lett, 2014).

A short description of data set [1]: AUC in Sprague-Dawley rat at 2 mg/kg, po. Type of data set: ADME, organism-based. The arrangement: dose 2 mg/kg, route oral. Particulars: plasma.
The nature of data set [2]: Plasma clearance in Sprague-Dawley rat at 1 mg/kg, iv and 2 mg/kg, po. Type of data set: ADME, organism-based.
The nature of data set [3]: Half life in Sprague-Dawley rat at 1 mg/kg, iv and 2 mg/kg, po. Type of data set: ADME, organism-based. Particulars: in vivo.
Data set [4] can be described thus: Cmax in Sprague-Dawley rat at 2 mg/kg, po. In kind it is ADME, organism-based. The arrangement: dose 2 mg/kg, route oral. Particulars: in vivo.
In another data set the test system is Rattus norvegicus. As to the kind of experiment: Oral bioavailability in Sprague-Dawley rat at 2 mg/kg. In kind it is ADME, organism-based. To be noted: in vivo.
A short description of data set [5]: Volume of distribution in Sprague-Dawley rat at 1 mg/kg, iv and 2 mg/kg, po. Type of data set: ADME, organism-based. Particulars: in vivo.
A short description of data set [6]: Stability in human microsomes. Type of data set: ADME, Microsome.

A word on the AUC: it is concentration integrated over time. Low readings indicate less exposure, high ones more exposure. The term half-life denotes the time in which the quantity being followed falls by half. Low readings indicate fast loss, high ones slow loss. As a reminder, the Cmax is the maximum level reached in the sampled fluid or tissue. In data set [1], `Cc1ncn(-c2ccc(Nc3cc(-c4nocc4-c4cn[nH]c4C)ccn3)cc2)n1` yielded an AUC of 0.7 µM·h. This compound also yielded a clearance in data set [2] of 13 mL/min/kg. Further, the half-life in data set [3] was 1.8 h. Further, in data set [4], the Cmax came out at 300 nM. In the data set on Rattus norvegicus, this compound showed an F of 12%. The Vd in data set [5] was 0.4 L/kg.

`Oc1onc(-c2ccnc(Nc3ccc(N4CCOCC4)cc3)c2)c1-c1ccc(F)cc1`: in data set [6], the Stability entry is “Unstable”.

As to `Cc1ncn(-c2ccc(Nc3cc(-c4nocc4-c4cnn(C)c4)ccn3)cc2)n1`, the AUC in data set [1] was found to be 5 µM·h. In data set [2], this compound gave a clearance of 6 mL/min/kg. Also, in data set [3], the half-life is 1.5 h. The compound also had a Cmax in data set [4] of 1500 nM. This compound yielded a F with Rattus norvegicus of 37%. Besides, the Vd in data set [5] turned out to be 0.4 L/kg.
